{"source": "BigSolDB 2.1"}
{"smiles": "NC(=O)c1ncn([C@@H]2O[C@H](CO)[C@@H](O)[C@H]2O)n1", "values": [{"measurement": "solubility (mole fraction)", "setting": "in DMSO, 293.15 K", "result": 0.0532}, {"measurement": "solubility (mole fraction)", "setting": "in DMSO, 298.15 K", "result": 0.0659}, {"measurement": "solubility (mole fraction)", "setting": "in DMSO, 303.15 K", "result": 0.075}, {"measurement": "solubility (mole fraction)", "setting": "in DMSO, 308.15 K", "result": 0.0821}, {"measurement": "solubility (mole fraction)", "setting": "in DMSO, 313.15 K", "result": 0.095}, {"measurement": "solubility (mole fraction)", "setting": "in DMSO, 318.15 K", "result": 0.11}, {"measurement": "solubility (mole fraction)", "setting": "in DMSO, 323.15 K", "result": 0.125}, {"measurement": "solubility (mole fraction)", "setting": "in acetone, 283.15 K", "result": "3.77e-05"}, {"measurement": "solubility (mole fraction)", "setting": "in acetone, 288.15 K", "result": "4.45e-05"}, {"measurement": "solubility (mole fraction)", "setting": "in acetone, 293.15 K", "result": "5.43e-05"}, {"measurement": "solubility (mole fraction)", "setting": "in acetone, 298.15 K", "result": "6.36e-05"}, {"measurement": "solubility (mole fraction)", "setting": "in acetone, 303.15 K", "result": "7.87e-05"}, {"measurement": "solubility (mole fraction)", "setting": "in acetone, 308.15 K", "result": "9.41e-05"}, {"measurement": "solubility (mole fraction)", "setting": "in acetone, 313.15 K", "result": 0.000114}, {"measurement": "solubility (mole fraction)", "setting": "in acetone, 318.15 K", "result": 0.000139}, {"measurement": "solubility (mole fraction)", "setting": "in acetone, 323.15 K", "result": 0.000153}, {"measurement": "solubility (mole fraction)", "setting": "in ethanol, 283.15 K", "result": "5.95e-05"}, {"measurement": "solubility (mole fraction)", "setting": "in ethanol, 288.15 K", "result": "8.55e-05"}, {"measurement": "solubility (mole fraction)", "setting": "in ethanol, 293.15 K", "result": 0.000117}, {"measurement": "solubility (mole fraction)", "setting": "in ethanol, 298.15 K", "result": 0.000158}, {"measurement": "solubility (mole fraction)", "setting": "in ethanol, 303.15 K", "result": 0.000209}, {"measurement": "solubility (mole fraction)", "setting": "in ethanol, 308.15 K", "result": 0.000282}, {"measurement": "solubility (mole fraction)", "setting": "in ethanol, 313.15 K", "result": 0.000339}, {"measurement": "solubility (mole fraction)", "setting": "in ethanol, 318.15 K", "result": 0.000435}, {"measurement": "solubility (mole fraction)", "setting": "in ethanol, 323.15 K", "result": 0.000552}, {"measurement": "solubility (mole fraction)", "setting": "in formic acid, 283.15 K", "result": 0.0483}, {"measurement": "solubility (mole fraction)", "setting": "in formic acid, 288.15 K", "result": 0.0533}, {"measurement": "solubility (mole fraction)", "setting": "in formic acid, 293.15 K", "result": 0.0644}, {"measurement": "solubility (mole fraction)", "setting": "in formic acid, 298.15 K", "result": 0.0785}, {"measurement": "solubility (mole fraction)", "setting": "in formic acid, 303.15 K", "result": 0.091}, {"measurement": "solubility (mole fraction)", "setting": "in formic acid, 308.15 K", "result": 0.104}, {"measurement": "solubility (mole fraction)", "setting": "in formic acid, 313.15 K", "result": 0.114}, {"measurement": "solubility (mole fraction)", "setting": "in formic acid, 318.15 K", "result": 0.131}, {"measurement": "solubility (mole fraction)", "setting": "in formic acid, 323.15 K", "result": 0.159}, {"measurement": "solubility (mole fraction)", "setting": "in methanol, 283.15 K", "result": 0.000576}, {"measurement": "solubility (mole fraction)", "setting": "in methanol, 288.15 K", "result": 0.000665}, {"measurement": "solubility (mole fraction)", "setting": "in methanol, 293.15 K", "result": 0.000743}, {"measurement": "solubility (mole fraction)", "setting": "in methanol, 298.15 K", "result": 0.000865}, {"measurement": "solubility (mole fraction)", "setting": "in methanol, 303.15 K", "result": 0.00103}, {"measurement": "solubility (mole fraction)", "setting": "in methanol, 308.15 K", "result": 0.00122}, {"measurement": "solubility (mole fraction)", "setting": "in methanol, 313.15 K", "result": 0.00138}, {"measurement": "solubility (mole fraction)", "setting": "in methanol, 318.15 K", "result": 0.00169}, {"measurement": "solubility (mole fraction)", "setting": "in methanol, 323.15 K", "result": 0.00194}, {"measurement": "solubility (mole fraction)", "setting": "in n-butanol, 283.15 K", "result": "7.44e-05"}, {"measurement": "solubility (mole fraction)", "setting": "in n-butanol, 288.15 K", "result": "8.95e-05"}, {"measurement": "solubility (mole fraction)", "setting": "in n-butanol, 293.15 K", "result": 0.000117}, {"measurement": "solubility (mole fraction)", "setting": "in n-butanol, 298.15 K", "result": 0.000149}, {"measurement": "solubility (mole fraction)", "setting": "in n-butanol, 303.15 K", "result": 0.000175}, {"measurement": "solubility (mole fraction)", "setting": "in n-butanol, 308.15 K", "result": 0.00021}, {"measurement": "solubility (mole fraction)", "setting": "in n-butanol, 313.15 K", "result": 0.000246}, {"measurement": "solubility (mole fraction)", "setting": "in n-butanol, 318.15 K", "result": 0.000288}, {"measurement": "solubility (mole fraction)", "setting": "in n-butanol, 323.15 K", "result": 0.000362}, {"measurement": "solubility (mole fraction)", "setting": "in n-propanol, 283.15 K", "result": "4.57e-05"}, {"measurement": "solubility (mole fraction)", "setting": "in n-propanol, 288.15 K", "result": "5.73e-05"}, {"measurement": "solubility (mole fraction)", "setting": "in n-propanol, 293.15 K", "result": "7.99e-05"}, {"measurement": "solubility (mole fraction)", "setting": "in n-propanol, 298.15 K", "result": 0.000102}, {"measurement": "solubility (mole fraction)", "setting": "in n-propanol, 303.15 K", "result": 0.000131}, {"measurement": "solubility (mole fraction)", "setting": "in n-propanol, 308.15 K", "result": 0.000161}, {"measurement": "solubility (mole fraction)", "setting": "in n-propanol, 313.15 K", "result": 0.000194}, {"measurement": "solubility (mole fraction)", "setting": "in n-propanol, 318.15 K", "result": 0.000235}, {"measurement": "solubility (mole fraction)", "setting": "in n-propanol, 323.15 K", "result": 0.000295}, {"measurement": "solubility (mole fraction)", "setting": "in sec-butanol, 283.15 K", "result": "7.85e-05"}, {"measurement": "solubility (mole fraction)", "setting": "in sec-butanol, 288.15 K", "result": "8.47e-05"}, {"measurement": "solubility (mole fraction)", "setting": "in sec-butanol, 293.15 K", "result": "9.62e-05"}, {"measurement": "solubility (mole fraction)", "setting": "in sec-butanol, 298.15 K", "result": 0.000104}, {"measurement": "solubility (mole fraction)", "setting": "in sec-butanol, 303.15 K", "result": 0.000122}, {"measurement": "solubility (mole fraction)", "setting": "in sec-butanol, 308.15 K", "result": 0.000135}, {"measurement": "solubility (mole fraction)", "setting": "in sec-butanol, 313.15 K", "result": 0.000161}, {"measurement": "solubility (mole fraction)", "setting": "in sec-butanol, 318.15 K", "result": 0.000196}, {"measurement": "solubility (mole fraction)", "setting": "in sec-butanol, 323.15 K", "result": 0.000224}, {"measurement": "solubility (mole fraction)", "setting": "in water, 283.15 K", "result": 0.00879}, {"measurement": "solubility (mole fraction)", "setting": "in water, 288.15 K", "result": 0.0104}, {"measurement": "solubility (mole fraction)", "setting": "in water, 293.15 K", "result": 0.0123}, {"measurement": "solubility (mole fraction)", "setting": "in water, 298.15 K", "result": 0.0144}, {"measurement": "solubility (mole fraction)", "setting": "in water, 303.15 K", "result": 0.0165}, {"measurement": "solubility (mole fraction)", "setting": "in water, 308.15 K", "result": 0.019}, {"measurement": "solubility (mole fraction)", "setting": "in water, 313.15 K", "result": 0.0225}, {"measurement": "solubility (mole fraction)", "setting": "in water, 318.15 K", "result": 0.0269}, {"measurement": "solubility (mole fraction)", "setting": "in water, 323.15 K", "result": 0.0305}]}
